Measurements: PubChem BioAssay AID1963438 (Molecular Pharmacology Branch, DTP, NCI, 2024)

Tested on: NCI-H510 multicellular tumor spheroid growth, % test/control
Experiment: Anticancer human tumor NCI-H510 cell line growth inhibition [Asc];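 note: spheroids exposed to agents for 7 days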;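 for viability, T/C: 100% = DMSO vehicle control wells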
Settings: for IC50: curve of first compound; for viability, T/C: stronger effect = lower value
In short: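 Complex solid-tumor spheroids incorporating human endothelial and mesenchymal stem cells received single agents or combinations over half-log dilution ranges anchored to clinical Cmax.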

[1] = second compound 0.01 µM, first compound 0.0316 µM
[2] = second compound 0.01 µM, first compound 0.1 µM
[3] = second compound 0.0316 µM, first compound 0.0316 µM
[4] = second compound 0.0316 µM, first compound 0.1 µM
[5] = second compound 0.1 µM, first compound 0.0316 µM
[6] = second compound 0.1 µM, first compound 0.1 µM
[7] = second compound 0.316 µM, first compound 0.0316 µM
[8] = second compound 0.316 µM, first compound 0.1 µM
[9] = second compound 1 µM, first compound 0.0316 µM
[10] = second compound 1 µM, first compound 0.1 µM

Work on `Cc1nc(N2CCC3(CC2)COC(C)C3N)c(CO)nc1Sc1ccnc(N)c1Cl` (configuration not stated) + CNC(C)C(=O)NC1CN(S(=O)(=O)c2cccc(S(=O)(=O)N3CCC4CCC(C(=O)NC(c5ccccc5)c5ccccc5)N4C(=O)C(NC(=O)C(C)NC)C3)c2)CCC2CCC(C(=O)NC(c3ccccc3)c3ccccc3)N2C1=O yielded an IC50 (second compound 0.00316 µM) of over 3 µM, an IC50 (second compound 0.01 µM) of over 3 µM and an IC50 (second compound 0.0316 µM) of over 3 µM. The IC50 (second compound 0.1 µM) was over 3 µM, the IC50 (second compound 0.316 µM) was over 3 µM and the IC50 (second compound 1 µM) was over 3 µM. It also gave a viability, T/C (second compound 0.00316 µM, first compound 0.00949 µM) of 103%, a viability, T/C (second compound 0.00316 µM, first compound 0.03 µM) of 95.3% and a viability, T/C (second compound 0.00316 µM, first compound 0.0949 µM) of 104%. The viability, T/C (second compound 0.00316 µM, first compound 0.3 µM) was 89%, the viability, T/C (second compound 0.00316 µM, first compound 0.949 µM) was 98.5% and the viability, T/C (second compound 0.00316 µM, first compound 3 µM) was 106%. The viability, T/C (second compound 0.01 µM, first compound 0.00949 µM) was 102%, the viability, T/C (second compound 0.01 µM, first compound 0.03 µM) was 108% and the viability, T/C (second compound 0.01 µM, first compound 0.0949 µM) was 99.9%. The viability, T/C (second compound 0.01 µM, first compound 0.3 µM) was 105%, the viability, T/C (second compound 0.01 µM, first compound 0.949 µM) was 93.9% and the viability, T/C (second compound 0.01 µM, first compound 3 µM) was 102%. For the same compound, the viability, T/C (second compound 0.0316 µM, first compound 0.00949 µM) was 97.9%, the viability, T/C (second compound 0.0316 µM, first compound 0.03 µM) was 88.3% and the viability, T/C (second compound 0.0316 µM, first compound 0.0949 µM) was 95.9%. It also gave a viability, T/C (second compound 0.0316 µM, first compound 0.3 µM) of 99.8%, a viability, T/C (second compound 0.0316 µM, first compound 0.949 µM) of 94.7% and a viability, T/C (second compound 0.0316 µM, first compound 3 µM) of 111%. The viability, T/C (second compound 0.1 µM, first compound 0.00949 µM) was 99.3%, the viability, T/C (second compound 0.1 µM, first compound 0.03 µM) was 99.2% and the viability, T/C (second compound 0.1 µM, first compound 0.0949 µM) was 109%. For the same compound, the viability, T/C (second compound 0.1 µM, first compound 0.3 µM) was 88.1%, the viability, T/C (second compound 0.1 µM, first compound 0.949 µM) was 99.5% and the viability, T/C (second compound 0.1 µM, first compound 3 µM) was 106%. The viability, T/C (second compound 0.316 µM, first compound 0.00949 µM) was 91.8%, the viability, T/C (second compound 0.316 µM, first compound 0.03 µM) was 117% and the viability, T/C (second compound 0.316 µM, first compound 0.0949 µM) was 94.9%. For the same compound, the viability, T/C (second compound 0.316 µM, first compound 0.3 µM) was 98.5%, the viability, T/C (second compound 0.316 µM, first compound 0.949 µM) was 94.7% and the viability, T/C (second compound 0.316 µM, first compound 3 µM) was 95%. It also gave a viability, T/C (second compound 1 µM, first compound 0.00949 µM) of 106%, a viability, T/C (second compound 1 µM, first compound 0.03 µM) of 91.1% and a viability, T/C (second compound 1 µM, first compound 0.0949 µM) of 104%. The viability, T/C (second compound 1 µM, first compound 0.3 µM) was 94.3%, the viability, T/C (second compound 1 µM, first compound 0.949 µM) was 90.6% and the viability, T/C (second compound 1 µM, first compound 3 µM) was 100%.
With `Cn1ncnc1[C@H]1c2n[nH]c(=O)c3cc(F)cc(c23)N[C@@H]1c1ccc(F)cc1` + CNC(C)C(=O)NC1CN(S(=O)(=O)c2cccc(S(=O)(=O)N3CCC4CCC(C(=O)NC(c5ccccc5)c5ccccc5)N4C(=O)C(NC(=O)C(C)NC)C3)c2)CCC2CCC(C(=O)NC(c3ccccc3)c3ccccc3)N2C1=O the IC50 (second compound 0.01 µM) was over 0.1 µM, the IC50 (second compound 0.0316 µM) was over 0.1 µM and the IC50 (second compound 0.1 µM) was over 0.1 µM. The IC50 (second compound 0.316 µM) was over 0.1 µM, the IC50 (second compound 1 µM) was over 0.1 µM and the viability, T/C (second compound 0.01 µM, first compound 0.000316 µM) was 102%. For the same compound, the viability, T/C (second compound 0.01 µM, first compound 0.001 µM) was 101%, the viability, T/C (second compound 0.01 µM, first compound 0.00316 µM) was 105% and the viability, T/C (second compound 0.01 µM, first compound 0.01 µM) was 104%. The viability, T/C [1] was 72.2%, the viability, T/C [2] was 85.8% and the viability, T/C (second compound 0.0316 µM, first compound 0.000316 µM) was 96%. For the same compound, the viability, T/C (second compound 0.0316 µM, first compound 0.001 µM) was 102%, the viability, T/C (second compound 0.0316 µM, first compound 0.00316 µM) was 97% and the viability, T/C (second compound 0.0316 µM, first compound 0.01 µM) was 97.2%. The viability, T/C [3] was 78%, the viability, T/C [4] was 98.4% and the viability, T/C (second compound 0.1 µM, first compound 0.000316 µM) was 110%. It also gave a viability, T/C (second compound 0.1 µM, first compound 0.001 µM) of 97%, a viability, T/C (second compound 0.1 µM, first compound 0.00316 µM) of 104% and a viability, T/C (second compound 0.1 µM, first compound 0.01 µM) of 98.2%. It also gave a viability, T/C [5] of 72.1%, a viability, T/C [6] of 91.4% and a viability, T/C (second compound 0.316 µM, first compound 0.000316 µM) of 113%. The viability, T/C (second compound 0.316 µM, first compound 0.001 µM) was 108%, the viability, T/C (second compound 0.316 µM, first compound 0.00316 µM) was 96.6% and the viability, T/C (second compound 0.316 µM, first compound 0.01 µM) was 96%. For the same compound, the viability, T/C [7] was 56.8%, the viability, T/C [8] was 93.6% and the viability, T/C (second compound 1 µM, first compound 0.000316 µM) was 110%. For the same compound, the viability, T/C (second compound 1 µM, first compound 0.001 µM) was 106%, the viability, T/C (second compound 1 µM, first compound 0.00316 µM) was 106% and the viability, T/C (second compound 1 µM, first compound 0.01 µM) was 97.5%. For the same compound, the viability, T/C [9] was 92.3% and the viability, T/C [10] was 91.1%.
`O=C(c1cc(Cc2n[nH]c(=O)c3ccccc23)ccc1F)N1CCN(C(=O)C2CC2)CC1` + CNC(C)C(=O)NC1CN(S(=O)(=O)c2cccc(S(=O)(=O)N3CCC4CCC(C(=O)NC(c5ccccc5)c5ccccc5)N4C(=O)C(NC(=O)C(C)NC)C3)c2)CCC2CCC(C(=O)NC(c3ccccc3)c3ccccc3)N2C1=O was tested, and the IC50 (second compound 0.01 µM) was 9.49 µM, the IC50 (second compound 0.0316 µM) was 8.07 µM and the IC50 (second compound 0.1 µM) was 8.9 µM. It also gave an IC50 (second compound 0.316 µM) of 9.8 µM, an IC50 (second compound 1 µM) of over 10 µM and a viability, T/C [1] of 103%. The viability, T/C [2] was 98.5%, the viability, T/C (second compound 0.01 µM, first compound 0.316 µM) was 110% and the viability, T/C (second compound 0.01 µM, first compound 1 µM) was 91.7%. The viability, T/C (second compound 0.01 µM, first compound 3.16 µM) was 89.4%, the viability, T/C (second compound 0.01 µM, first compound 10 µM) was 47.9% and the viability, T/C [3] was 99.8%. The viability, T/C [4] was 101%, the viability, T/C (second compound 0.0316 µM, first compound 0.316 µM) was 96.2% and the viability, T/C (second compound 0.0316 µM, first compound 1 µM) was 109%. It also gave a viability, T/C (second compound 0.0316 µM, first compound 3.16 µM) of 95%, a viability, T/C (second compound 0.0316 µM, first compound 10 µM) of 39.7% and a viability, T/C [5] of 90.3%. It also gave a viability, T/C [6] of 89.2%, a viability, T/C (second compound 0.1 µM, first compound 0.316 µM) of 83.2% and a viability, T/C (second compound 0.1 µM, first compound 1 µM) of 114%. The viability, T/C (second compound 0.1 µM, first compound 3.16 µM) was 91.8%, the viability, T/C (second compound 0.1 µM, first compound 10 µM) was 45.3% and the viability, T/C [7] was 97.8%. It also gave a viability, T/C [8] of 107%, a viability, T/C (second compound 0.316 µM, first compound 0.316 µM) of 117% and a viability, T/C (second compound 0.316 µM, first compound 1 µM) of 87.5%. For the same compound, the viability, T/C (second compound 0.316 µM, first compound 3.16 µM) was 89.1%, the viability, T/C (second compound 0.316 µM, first compound 10 µM) was 48.9% and the viability, T/C [9] was 112%. The viability, T/C [10] was 110%, the viability, T/C (second compound 1 µM, first compound 0.316 µM) was 104% and the viability, T/C (second compound 1 µM, first compound 1 µM) was 101%. For the same compound, the viability, T/C (second compound 1 µM, first compound 3.16 µM) was 92.1% and the viability, T/C (second compound 1 µM, first compound 10 µM) was 58%.
